In one data set the target is T1, CXCR2 receptor (Homo sapiens, UniProt P25025).
T1 sequence (P25025 1-360): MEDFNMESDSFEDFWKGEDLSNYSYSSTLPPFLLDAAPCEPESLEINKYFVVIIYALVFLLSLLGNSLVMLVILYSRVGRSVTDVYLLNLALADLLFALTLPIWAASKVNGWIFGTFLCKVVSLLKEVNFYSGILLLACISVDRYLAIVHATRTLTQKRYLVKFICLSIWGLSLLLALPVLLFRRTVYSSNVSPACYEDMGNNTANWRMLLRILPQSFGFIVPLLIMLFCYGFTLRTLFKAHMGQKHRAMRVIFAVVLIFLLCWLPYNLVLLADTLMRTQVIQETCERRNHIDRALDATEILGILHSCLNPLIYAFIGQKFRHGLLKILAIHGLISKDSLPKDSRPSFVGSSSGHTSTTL
Nature of the data set: CXCR2 Tango assay. In kind it is cell-based. Set-up: fused on or other part: TEV protease cleavage site and Gal4-VP16 transcription factor fused to the receptor (Invitrogen Tango construct); no part of the key. The following applies: Tango reporter gene, 80 nM hCXCL1; read-out: pIC50 against the CXCR2 receptor (converted). The text has this: The assay measures ligand-induced activation of the receptor CXCR2 in a stable cell line containing the recombinant human CXCR2 linked to a TEV protease site and a Gal4-VP16 transcription factor (Invitrogen). Ligand binding to the receptor results in the recruitment of arrestin proteins (tagged with protease) to the receptor and triggers the release of a tethered transcription factor. The transcription factor enters the nucleus and activates the transcription of the reporter gene. The ability of a compound to inhibit CXCR2 activation is indirectly assessed by measuring the reporter gene activity.
A vial of cryopreserved cells was removed from liquid nitrogen and rapidly thawed in a water bath at 37° C. with gentle agitation. The cell contents were collected and resuspended in Assay Medium at a density of ˜200,000 cells/ml. All test compounds were dissolved in DMSO at a concentration of 10 mM and then were serially diluted to generate a 10-point dose response curve into 384-well assay plate (Greiner 781090) using an Echo (Labcyte) concentration-response program (50 nl/well). The cell-free, un-stimulated and positive controls were loaded with 50 nl/well pure DMSO to ensure that the DMSO concentration was constant across the plate for all assays. Using Multi-drop Combi (Thermo) with standard cassette, 50 μl of Assay Medium was added to cell-free control wells in compound-containing assay plate; 50 μl of the cell suspension without hCXCL1 (a CXCR2 ligand) was added to un-stimulated control wells (10,000 cells per well); and 50 μl of the cell suspension with 80 nM hCXCL1 was added to the rest of wells of the assay plate (10,000 cells per well). The cells were incubated overnight at 37° C./5% CO2·10 μl of 6× substrate mixture (LiveBLAzer™-FRET B/G substrate (CCF4-AM) Cat #K1096 from Invitrogen, Inc.) was added to each well using Multi-drop Combi (Thermo) with small-tube cassette and the plate was incubated at room temperature for 2 h in the dark. The plate was then read on EnVision using one excitation channel (409 nm) and two emission channels (460 nm and 530 nm).
The blue/green emission ratio (460 nm/530 nm) was calculated for each well by dividing the background-subtracted Blue emission values by the background-subtracted Green emission values. The dose response curve was based on sigmoidal dose-response model. All ratio data was normalized based upon the maximum emission ratio of positive control (hCXCL1) and minimum emission ratio of negative control (DMSO) on each plate.
Background: Reporter assays use an easily measured gene product as a stand-in for the process of interest.

The test system of another data set is Sprague-Dawley rats. Nature of the data set: CXCR2 antagonist effect on repeat dosing oxaliplatin induced sensory injury rat. The following applies: Veh/Oxa rats, 4 mg/kg i.p. twice per week for 4 weeks, Day 29-31, mean±SEM.
The subject of another data set is HCT116 cell line. Nature of the data set: Colorectal cancer cell line proliferation assay, HCT116. In kind it is cell-based. The following applies: HCT116, 72 hours. How it is done: Cell proliferation assay: Cells were seeded in 96-well plates (Costar) at different cell densities: HCT116, 500 cells per well; Caco-2, 1000 cells per well. Total volume of the medium was 90 μl per well. Cells were incubated for 24 hours at 37° C. and 5% CO2 incubator. […] The final concentration of the Compound of Formula (A) was 8.5 μM. […] The cell proliferation rate was measured by adding 100 μl of CellTiter-Glo™ (Promega) according to the manufacturer's instructions. After 10 minutes of incubation, the cell lysates were transferred into OptiPlate-384 well, the luminescence was recorded by BioTek Synergy™ 4 Hybrid Microplate Reader with Gen5 software. All data points were generated in five replicates. Three independent experiments were performed. […] All data were presented as the mean±standard error of the mean determined from three independent experiments.

The next data set concerns the target T2, CXCR1 receptor (Homo sapiens, UniProt P25024).
T2 sequence (P25024 1-350): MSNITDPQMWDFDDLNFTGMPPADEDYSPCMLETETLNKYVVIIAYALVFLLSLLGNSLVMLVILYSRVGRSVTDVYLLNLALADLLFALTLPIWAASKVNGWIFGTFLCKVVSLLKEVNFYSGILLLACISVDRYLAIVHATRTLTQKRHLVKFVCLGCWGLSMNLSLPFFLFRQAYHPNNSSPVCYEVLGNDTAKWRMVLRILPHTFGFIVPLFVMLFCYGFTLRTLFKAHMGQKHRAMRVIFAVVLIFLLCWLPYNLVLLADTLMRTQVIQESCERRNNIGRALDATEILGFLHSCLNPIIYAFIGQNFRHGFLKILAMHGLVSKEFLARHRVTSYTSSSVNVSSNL
Kind of data set: Receptor binding assay ([125I] IL-8 SPA), CXCR1. Set-up: expressed in transfected cells; host or cells: CHO cells (membranes). The following applies: [125I] IL-8 binding, CHO-CXCR1 membranes; read-out: pIC50 against the CXCR1 receptor (converted). How it is done: [^125I] IL-8 (human recombinant, IM249) was obtained from Amersham Corp., Arlington Heights, Ill., with specific activity 2000 Ci/mmol. All other chemicals were of analytical grade. High levels of recombinant human CXCR1 and CXCR2 receptors were individually expressed in Chinese hamster ovary (CHO) cells as described in Holmes, et al., Science, 1991, 253, 1278, incorporated herein to the extent required to perform the present assay. The Chinese hamster ovary membranes were prepared according to Haour, et al., J. Biol. Chem., 249 pp 2195-2205 (1974), incorporated herein to the extent required to perform the present assay, except that the homogenization buffer was changed to 40 mM Tris-HCL pH 7.5 containing 1 mM MgSO4, 0.5 mM EDTA (ethylene-diaminetetra-acetic acid), 1 mM PMSF (α-toluene-sulphonyl fluoride), 2.5 mg/L Leupeptin and 0.1 mg/ml Aprotinin. Membrane protein concentration was determined using Bio-Rad Reagent using bovine serum albumin as a standard. All binding assays were conducted using Scintillation Proximity Assay (SPA assay) using wheatgerm agglutinin beads in a 96-well micro plate (optiplate 96, Packard) format. […] The 96-well plates were incubated on a shaking platform for 1 hour. At the end of the incubation the plates were spun for 5 min at 2000 RPM, and counted in a Top Count counter.

Protocol for Sprague-Dawley rats: Male Sprague-Dawley rats (109-167 g, ˜5weeks old) were housed in cages in groups of three in a controlled environment of constant temperature and moisture (temperature: 25±3° C., light: dark cycle of 12:12 hours) with food (25 g/rat/day of LabDiet 5053) and water available ad libitum.
MC (Sigma Cat #423238) was made up in water at 1% (w/v) (1 g per 100 mL water) and left on a stirrer until completely dissolved. The formulation was prepared every 6-8 days in 400-700 mL each time and stored at 4° C. protected from light. The dosing volume used was 10 mL/kg to give a 20 mg/kg p.o. dose. Vehicle treated animals were dosed b.i.d. with 1% MC w/v at 10 mL/kg p.o.
A fresh solution was prepared before every injection. Control vehicle animals were treated with 5% w/v Gluclose at 5ml/kg. Glucose (Sigma Aldrich Cat #G7021) was made up in milli-Q water at 5% (w/v) (5 g per 100 mL water) and left on a stirrer until completely dissolved.
Body weight tracking: The bodyweights of rats were measured twice a week for 4 weeks on Days 1, 3, 9, 11, 16, 18, 23, and 25. […]
Rats were anesthetized with chloral hydrate (350 mg/kg, 3.5 mL/kg, i.p.). […] The right sciatic nerve was carefully identified and conduction velocity was measured by recording action potentials from an electrode placed between the second and third digits as described by Jamieson et al., Br. J. Cancer, 88(12):1942-7 (2003), and electrically stimulating the nerve (5V, 0.5 s, single-wave pulses) via a platinum wire electrode at the sciatic notch and ankle. The length between the sciatic notch and ankle was measured.
The nerve conduction velocity was calculated as the length between sciatic notch and ankle divided by the difference between the time latencies at the stimulation sites [latency (sciatic notch)−latency (ankle)].
A 1 cm segment of the left sciatic nerve (distal end) was located and carefully dissected out. […] The ratio of inner area over entire area of nerve fibers of sciatic nerves was then calculated as an indicator of thickness of myelin sheath of nerves.

In the case of `CC1=CCC[C@H]1NC(=O)Nc1ccc(Cl)c(S(=O)(=O)[C@]2(C)CCOC2)c1O` [Compound of Formula (C), 1-(4-chloro-2-hydroxy-3-(((R)-3-methyltetrahydrofuran-3-yl)sulfonyl)phenyl)-3-((R)-2-methylcyclopent-2-en-1-yl)urea], on CXCR2 receptor, the IC50 was 1 nM. On to `CC1=CCC[C@H]1NC(=O)Nc1ccc(Cl)c(S(=O)(=O)C(C)(F)F)c1O` [Compound of Formula (I), (R)-1-(4-chloro-3-((1,1-difluoroethyl)sulfonyl)-2-hydroxyphenyl)-3-(2-methylcyclopent-2-en-1-yl)urea], for which the IC50 at CXCR2 receptor is 0.398 nM. Regarding `O=C1[O][Pt]2([NH][C@@H]3CCCC[C@H]3[NH]2)[O]C1=O` [Oxaliplatin, oxaliplatin], the “sciatic nerve conduction velocity between sciatic notch and ankle” value in the data set with Sprague-Dawley rats was found to be 35.99±0.59 m/s. Besides, in the data set on HCT116 cell line (oxaliplatin with vehicle, mean±SEM), the “pIC50 inhibition of cell proliferation” value is 6.049±0.016. Further, the “pIC50 inhibition of cell proliferation in the presence of Compound of Formula (A)” value in the data set on HCT116 cell line (with Compound of Formula (A) 8.5 μM) is given as 6.05±0.02.

With `CC1=CCC[C@H]1NC(=O)Nc1ccc(Cl)c(S(=O)(=O)[C@H]2C[C@H](N3CCCC3)C2)c1O` [Compound of Formula (G), 1-(4-chloro-2-hydroxy-3-((trans-3-(pyrrolidin-1-yl)cyclobutyl)sulfonyl)phenyl)-3-((R)-2-methylcyclopent-2-en-1-yl)urea], the IC50 on CXCR2 receptor is 1 nM. On to `Cc1c(F)cccc1NC(=O)Nc1ccc(Cl)c(S(=O)(=O)C2CCCNC2)c1O` (stereo not shown) [Compound of Formula (B), 1-(4-chloro-2-hydroxy-3-(piperidin-3-ylsulfonyl)phenyl)-3-(3-fluoro-2-methylphenyl)urea], for which, at CXCR1 receptor, the IC50 was 1000 nM.

Regarding `CC1=CCC[C@H]1NC(=O)Nc1ccc(Cl)c(S(=O)(=O)[C@H]2C[C@H](N(C)C)C2)c1O` [Compound of Formula (H), 1-(4-chloro-3-((trans-3-(dimethylamino)cyclobutyl)sulfonyl)-2-hydroxyphenyl)-3-((R)-2-methylcyclopent-2-en-1-yl)urea], the IC50 at CXCR2 receptor is 1 nM. On the same count and under the same terms, in the case of `CC1(S(=O)(=O)c2c(Cl)ccc(NC(=O)N[C@@H]3CCC=C3Cl)c2O)CCOCC1` [Compound of Formula (E), (R)-1-(4-chloro-2-hydroxy-3-((4-methyltetrahydro-2H-pyran-4-yl)sulfonyl)phenyl)-3-(2-chlorocyclopent-2-en-1-yl)urea] it was 1.58 nM; in that of `CC1=CCC[C@H]1NC(=O)Nc1ccc(C#N)c(S(=O)(=O)C(C)(C)C)c1O` [Compound of Formula (F), (R)-1-(3-(tert-butylsulfonyl)-4-cyano-2-hydroxyphenyl)-3-(2-methylcyclopent-2-en-1-yl)urea], 0.2 nM.

The values above are taken from patent US20170224679A1, “Use of CXCR2 Antagonists For The Prevention and/or Treatment of Chemotherapy Induced Peripheral Neuropathy (CIPN)” (GlaxoSmithKline Intellectual Property Development Limited, priority 2014, published 2017).
